Source: patent US20230091810A1, “FIRST-IN-CLASS OF SHMT2 AND MTHFD2 INHIBITORS AS ANTITUMOR AGENTS” (Duquesne University of the Holy Spirit, priority 2017, published 2023)
Where two headings read alike, the source gives them in different places.

Columns and labels:
[1] = test system: IGROV1 (EOC); experiment: proliferation assay, IGROV1 epithelial ovarian cancer cells; format: cell-based, human; conditions: folate-/glycine-free RPMI1640 with 25 nM leucovorin, read-out: IC50s (SE) IGROV1 (EOC)
Experimental: (§1) Proliferation assays were performed with engineered Chinese hamster ovary (CHO) cell lines R2 (transporter-null), PC43-10 (expresses RFC only), RT16 (FRα only), and R2/PCFT4 (PCFT only) cultured in folate-/glycine-free RPMI1640 supplemented with 25 nM leucovorin. Additional results are shown for HCT116 (colon tumor cells (CTC)), IGROV1 (epithelial ovarian cancer (EOC) cells), H460 (non-small cell lung cancer (NSCLC) cells), MIAPaCa-2 (pancreatic cancer (PaC) cells), and HPAC (PaC).
(§2) For proliferation assays of the HCT116, H460, and MIA PaCa2 tumor cell lines, the cells were plated in 96-well plates in an identical manner to the CHO experiments, except that the maximal drug concentration was increased to 10 µM. Glycine/nucleoside protection experiments in CHO and tumor cell lines were performed in folate- and glycine-free RPMI 1640/10% dialyzed fetal bovine serum supplemented with 25 nM leucovorin without additions, or in the presence of adenosine (60 µM), thymidine (10 µM), glycine (130 µM) and/or 5-aminoimidazole-4-carboxamide (AICA) (320 µM). Growth of metabolite-treated cells was normalized to controls treated with metabolites and vehicle (i.e., DMSO) both singly and in combination. Treatments with all metabolites were performed in parallel on the same plate for a given drug.

[2] = test system: MIA PaCa-2 (PaC); experiment: proliferation assay, MIA PaCa-2 pancreatic cancer cells; format: cell-based, human; conditions: folate-/glycine-free RPMI1640 with 25 nM leucovorin, 96 h, read-out: IC50s (SE) MIA PaCa-2 (PaC)
Experimental: as §1
Cell culture and proliferation/protection assays. The HCT116 cell lines including the serine hydroxymethyltransferase (SHMT) 1, SHMT2, and methylene THF dehydrogenase 2 (MTHFD2) knockout (KO) cells were previously described (47,53). The H460 cell line was obtained from the American Type Culture Collection (Manassas, VA), whereas the MIA PaCa-2 cells were provided by Dr. Yubin Ge (Karmanos Cancer Institute). Cell lines were verified by STR analysis by Genetica DNA Laboratories (Burlington, NC). MTXRIIOua^R2-4 (i.e. R2) Chinese hamster ovary (CHO) cells were generously provided by Dr. Wayne Flintoff (University of Western Ontario) (54). From this parental R2 cell line, human RFC and PCFT were individually transfected to generate the isogenic CHO cell lines designated PC43-10 (RFC) and R2/PCFT4 (PCFT) (55-57). Human tumor cell lines were cultured in folate-free RPMI supplemented with 10% dialyzed fetal bovine serum (Sigma-Aldrich), 1% penicillin/streptomycin solution, 2 mM L-glutamine, and 25 nM leucovorin in a humidified atmosphere at 37° C. in the presence of 5% CO2 and 95% air. The CHO cell lines were cultured in alpha-minimal essential medium (alpha-MEM) supplemented with 10% bovine calf serum, 1% penicillin/streptomycin solution, and 2 mM L-glutamine. Additionally, the transfected CHO cell lines (i.e. R2/PCFT4 and PC43-10) were maintained under continuous selection with 1 mg/ml of G418.
as §2

[3] = test system: HPAC (PaC); experiment: proliferation assay, HPAC pancreatic cancer cells; format: cell-based, human; conditions: folate-/glycine-free RPMI1640 with 25 nM leucovorin, read-out: IC50s (SE) HPAC (PaC)
Experimental: as §1, §2

[4] = test system: human MIA PaCa-2 pancreatic adenocarcinoma xenografts; experiment: in vivo efficacy trial with MIA PaCa-2 pancreatic cancer xenografts; design: species or system SCID mice
Experimental: Female ICR SCID mice (10 weeks old; 19 g average body weight) were implanted bilaterally with human MIA PaCa-2 tumors. […] The mice were weighed and tumors were measured with a caliper two-to-three times weekly; mice were sacrificed when the cumulative tumor burden reached 1500 mg. Tumor weights were estimated from two-dimensional measurements, where tumor mass (in mg) = (a x b^2)/2, and a and b are the tumor length and width in mm, respectively. The tumor masses from both tumors on each mouse were added together, and the total mass per mouse was used for calculations of anti-tumor activity. Quantitative end-points include: (i) tumor growth delay [T-C, where T is the median time in days required for the treatment group tumors to reach a predetermined size (e.g., 1000 mg), and C is the median time in days for the control group tumors to reach the same size; tumor-free survivors are excluded from these calculations]; and (ii) T/C (in percent) when treatment (T) and control (C) groups for the control groups reached 700 mg in size (exponential growth phase). The median value of each group was determined (including zeros). Mouse weights were monitored as a gauge of drug toxicity.
Female ICR SCID mice (10 weeks old; 19 g average body weight) were implanted bilaterally with human MIA PaCa-2 PaC tumors.
In vivo efficacy trial with MIA PaCa-2 pancreatic cancer xenografts. Methods for in vivo maintenance of MIA PaCa-2 tumor xenografts and drug efficacy evaluations are analogous to those previously described (58, 62-67). MIA PaCa-2 human pancreatic cancer cells (5 × 10^6 cells/flank) were bilaterally implanted subcutaneously with tumor fragments (30-60 mg) with a 12-gauge trocar in female […] SCID mice (NCI Animal Production Program). The mice were 10 weeks old on day 0 (tumor implant) with an average body weight of 19 g. For the efficacy trial, the mice were maintained on either a folate-deficient diet from Harlan-Teklad (TD.00434) starting 14 days before subcutaneous tumor implant to ensure serum folate levels would approximate those of humans. A separate cohort of mice was fed a folate-replete control diet from Lab Diet (5021). Mice were supplied with food and water ad libitum. Serum folate concentrations were monitored prior to tumor implant and post study by Lactobacillus casei bioassay (68). The mice in each group (folate-deficient and standard diet) were pooled before unselective distribution to the treatment and control groups. […] The drugs were dissolved in 5% ethanol (v/v), 1% Tween-80 (v/v), and 0.5% NaHCO3 and were administered intravenously (0.2 ml/injection). The mice were weighed and tumors were measured with a caliper two-to-three times weekly; mice were sacrificed when the cumulative tumor burden reached 1500 mg. Tumor weights were estimated from two-dimensional measurements, where tumor mass (in mg) = (a × b^2)/2, and a and b are the tumor length and width in mm, respectively. The tumor masses from both tumors on each mouse were added together, and the total mass per mouse was used for calculations of anti-tumor activity. Quantitative end-points include: (i) tumor growth delay [T-C, where T is the median time in days required for the treatment group tumors to reach a predetermined size (e.g., 1000 mg), and C is the median time in days for the control group tumors to reach the same size; tumor-free survivors are excluded from these calculations]; and (ii) T/C (in percent) when treatment (T) and control (C) groups for the control groups reached 700 mg in size (exponential growth phase). The median value of each group was determined (including zeros). Mouse weights were monitored as a gauge of drug toxicity.

[5] = IV, AGF291 Q6dx3 start d3, total 23.5 mg/kg, Gemcitabine Q4dx4 start d3, total 480 mg/kg

| IC50 ([1]; Homo sapiens, IGROV-1) | IC50 ([2]; Homo sapiens, MIA PaCa-2) | IC50 ([3]; Homo sapiens, HPAC) | weight loss (median nadir) ([4]; nadir on day 17 for AGF291, day 6 for GEM, completely reversible after cessation of therapy) | Molecule | Mean Body Weight Loss (g/mouse) [4, 5] | Percent Body Weight Loss [4, 5] | median tumor burden on day 14 ([4]; day 14, control cohort 1321 mg) | Median Tumor Burden in mg on d16 (range) ([4]; day 16, IV, AGF291 total 23.5 mg/kg, Gemcitabine total 480 mg/kg) | Tumor Free on d52 ([4]; day 52, mice tumor free/total) | Tumor Growth Delay (T-C) ([4]; median T-C to reach 1000 mg, AGF291 total 23.5 mg/kg, Gemcitabine total 480 mg/kg) | Time to 1000 mg in days (range) ([4]; median, IV, AGF291 total 23.5 mg/kg, Gemcitabine total 480 mg/kg) | T/C% ([4]; treated/control median tumor burden, AGF291 7.75 mg/kg/inj Q6dx3, GEM 120 mg/kg/inj every 4 days, start day 3) | IC50 [1] | IC50 [2] | IC50 [3] | T-C (1000 mg) ([4]; AGF347 Q2dx8 at 15 mg/kg/inj, total dose 120 mg/kg, start day 3) | mice disease-free at 122 days ([4]; AGF347 Q2dx8 at 15 mg/kg/inj, total dose 120 mg/kg, 122 days) |
| --- | --- | --- | --- | --- | --- | --- | --- | --- | --- | --- | --- | --- | --- | --- | --- | --- | --- |
| 443 nM | 3660 nM | 301 nM | 9% | Nc1nc2ccn(CCCc3ccc(C(=O)N[C@@H](CCC(=O)O)C(=O)O)cc3)c2c(=O)[nH]1 [AGF291] | -1.8 g/mouse | -8.9% | 256 mg | 334 (0-1221) mg | 0/5 | 10.5 days | 23.0 (15.0-51) days | 19% |  |  |  |  |  |
|  |  |  |  | Nc1nc2ccn(CCCCCc3ccc(C(=O)N[C@@H](CCC(=O)O)C(=O)O)s3)c2c(=O)[nH]1 [AGF320] |  |  |  |  |  |  |  |  | 401 nM | 2270 nM | 190 nM |  |  |
|  |  |  |  | (2-amino-4-oxo-3,4-dihydro-5H-pyrrolo[3,2-d]pyrimidin-5-yl)butyl)-2-fluorobenzoyl)-L-glutamic acid [AGF347] |  |  |  |  |  |  |  |  | 62 nM | 1380 nM | 764 nM | 54 days | 1/5 |
